# According to patent US10155948B2, “Pharmaceutical composition for preventing or treating diabetic complications and screening method for preventive or therapeutic agent for diabetic complications” (KANGWON NATIONAL UNIVERSITY UNIVERSITY-INDUSTRY COOPERATION …, priority 2016, dated 2018):
# What was measured:
# TGase2 [1] = molecular target: T1, TGase2 (Homo sapiens, UniProt P21980); experiment: In-situ TGase activity by confocal microscopy in VEGF-treated HRECs; type: cell-based; design: endogenous in cells; host or cells: human retinal endothelial cells (HRECs); conditions: 10 ng/ml VEGF 2 hrs, 50 μM cystamine, 20 μM MDC, 5 μM BAPTA-AM, 1 mM NAC, 0.5 μM Trolox, p<0.001
# T1 sequence (P21980 1-687): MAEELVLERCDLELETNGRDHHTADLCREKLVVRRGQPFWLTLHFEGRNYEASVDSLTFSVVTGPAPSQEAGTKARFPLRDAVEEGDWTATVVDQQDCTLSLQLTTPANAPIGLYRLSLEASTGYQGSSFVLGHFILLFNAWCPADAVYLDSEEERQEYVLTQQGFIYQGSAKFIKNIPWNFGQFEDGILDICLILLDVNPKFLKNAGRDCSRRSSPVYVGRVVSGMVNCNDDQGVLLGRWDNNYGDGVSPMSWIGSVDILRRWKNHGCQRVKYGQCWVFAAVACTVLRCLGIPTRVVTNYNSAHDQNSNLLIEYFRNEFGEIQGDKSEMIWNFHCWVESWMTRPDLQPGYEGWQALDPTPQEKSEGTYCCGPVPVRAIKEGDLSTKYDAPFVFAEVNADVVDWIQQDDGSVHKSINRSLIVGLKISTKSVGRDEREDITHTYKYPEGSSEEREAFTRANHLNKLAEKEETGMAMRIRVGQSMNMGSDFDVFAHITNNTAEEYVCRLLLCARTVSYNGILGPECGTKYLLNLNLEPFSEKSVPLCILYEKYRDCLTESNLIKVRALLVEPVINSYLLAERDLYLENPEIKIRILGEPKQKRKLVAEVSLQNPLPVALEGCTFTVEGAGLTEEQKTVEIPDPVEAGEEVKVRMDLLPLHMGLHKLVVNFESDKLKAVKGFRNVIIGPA
# Procedure: HUVEC isolation was done by our own supply and Human retinal endothelial cells (HRECs) were purchased from the Applied Cell Biology Research Institute (Cell Systems, Kirkland, Wash.). Both respectively were grown on 2% gelatin-coated plates in a M199 medium supplemented with 20% fetal bovine serum (FBS), 3 ng/ml basic fibroblastic growth factor, 5 units/ml heparin, 100 units/ml penicillin, and 100 μg/ml streptomycin. For experiments, cells were incubated for 6 hrs in a low-serum medium supplemented with 1% FBS and antibiotics.
# In-situ Tgase transamidating activity was determined via confocal microscopic assay according to a previously known procedure. In brief, cells were incubated with 1 mM 5-(biotinamido)pentylamine (BAPA) for 1 hr at 37° C., fixed with 3.7% formaldehyde in PBS for 30 min, and permeabilized with 0.2% Triton X-100 in PBS for 30 min. After incubation with a blocking solution of 2% BSA in 20 mM Tris (pH 7.6), 138 mM NaCl, and 0.1% Tween 20 for 30 min, cells were treated with Cy3-conjugated streptavidin (1:200, v/v) in the blocking solution for 1 hr. Single-cell fluorescence intensities of stained cells were determined using confocal microscopy for 10 randomly selected cells per test. TGase activities were determined by comparing average fluorescence intensities of treated cells with those of control cells (expressed as multiples thereof).
# HRECs were transfected with human TGase2-specific siRNA as described previously. In brief, cells were transfected with various concentrations of human TGase2-siRNA or 100 nM control siRNA (Dharmacon, Lafayette, Colo.) using siLentFect lipid reagent (Bio-Rad Laboratories, Hercules, Calif.) according to the manufacturer's instructions. Six hours after transfection with the indicated concentrations, the medium was replaced with a fresh culture medium and the transfected cells were further incubated for 24 hrs.
# A detailed description of FIGS. 1A-1F are given below. […] (A, B) HRECs were incubated with 10 ng/ml VEGF for the indicated times (A) or for 2 hrs (B) in the presence of TGase inhibitors (50 μM cystamine and 20 μM MDC), 5 μM Ca^2+ chelator BAPTA-AM, or ROS scavengers (1 mM NAC or 0.5 μM Trolox). In-situ TGase activity was determined by confocal microscopy as described in Research Design and Methods (A: Time course changes in VEGF-induced transglutaminase activation; and B: Effects of various inhibitors on VEGF-induced transglutaminase activation). (C,D) HRECs were transfected with the indicated concentrations (C) or 100 nM (D) of human TGase2-specific siRNA (TGase2 siRNA) or 100 nM control (Ctrl) siRNA. Endothelial cells were treated with 10 ng/ml VEGF and subjected to confocal microscopic determination of in-situ TGase activity (C: Dose-dependent inhibition of TGase2 expression by TGase2 siRNA, TGase2 expression being analyzed by Western blot; and D: TGase2 siRNA prevention of VEGF-induced transglutaminase activation). FIGS. 1E and 1F show the effects of various inhibitors on the elevation of intracellular Ca^2+ (E) and ROS (F). Intracellular Ca^2+ and ROS levels were determined by confocal microscopy as described in Research Design and Methods. Results are expressed as mean±SD from three independent trials (***p<0.001).
# HRECs [2] = experiment: Intracellular ROS generation (H2DCFDA, confocal) in HRECs; type: cell-based, human; conditions: 10 ng/ml VEGF, inhibitors pretreated 30 min
# Procedure: Intracellular ROS generation was determined using 2′,7′-dichlorodihydrofluorescein diacetate (H2DCFDA, Molecular Probes, Eugene, Oreg.) staining as previously described. Cells were pretreated with inhibitors for 30 min and co-incubated with 10 ng/ml of VEGF and 10 μM H2DCFDA in low-serum media (phenol red-free) for 10 min. Labeled cells were immediately analyzed using confocal microscopy (Fluoview-300, Olympus). Single-cell fluorescence intensities were determined for 10 randomly selected cells per test. Intracellular ROS levels were determined by comparing average fluorescence intensities of treated cells with those of control cells (expressed as multiples thereof). […] Intracellular Ca^2+ and ROS levels were determined by confocal microscopy as described in Research Design and Methods. Results are expressed as mean±SD from three independent trials (***p<0.001).
# HRECs [3] = experiment: Intracellular Ca2+ levels (Fluo4-AM, confocal) in HRECs; type: cell-based, human; conditions: 10 ng/ml VEGF, inhibitors 30 min
# Procedure: Cells on coverslips were co-incubated with 2 μM Fluo4-AM and various inhibitors for 30 min at 37° C. Coverslips were scanned every 10 sec in the presence of 10 ng/ml VEGF using a confocal microscope (FV-300, Olympus Tokyo, Japan). Single-cell fluorescence intensities of peaks were determined for 10 randomly selected cells per trial.
# VE-cadherin = experiment: Visualization of VE-cadherin (adherens junction disruption) in HRECs; type: cell-based, human; conditions: summary statement, conditions not given
# Procedure: (§1) Actin filaments and VE-cadherin were visualized as previously described. For visualization of actin filaments, cells were treated with 10 ng/ml VEGF for 1 hr at 37° C., fixed with 3.7% formaldehyde, and permeabilized with 0.2% Triton X-100. […] For visualization of VE-cadherin, cells were preincubated with the TGase2 inhibitors for 30 min and treated with 10 ng/ml VEGF for 90 min at 37° C. Following fixation and permeabilization, cells were incubated overnight with a monoclonal anti-VE-cadherin antibody (1:200, Santa Cruz Biotechnology) at 4° C. Cells were then probed with an FITC-conjugated goat anti-mouse antibody (1:200, Sigma) and VE-cadherin was visualized using confocal microscopy. Adherens junctions are represented by histograms of VE-cadherin as indicated by dotted lines and were quantitatively analyzed using peak fluorescence intensities of the histograms at the single-cell level for 10 randomly selected cells per experiment.
# (§2) (A-C) HRECs were preincubated with 50 μM cystamine (Cys) and 20 μM MDC for 30 min and treated with 10 ng/ml VEGF. Stress fibers and VE-cadherin were stained and visualized by confocal microscopy as described in Research Design and Methods (n=3) ((A) Representative images of stress fibers. Scale Bar, 30 μm. (B) Representative images of VE-cadherin. Scale Bar, 10 μm). Adherens junctions are represented by histograms of VE-cadherin as indicated by dotted lines. (C) Adherens junctions were quantitatively analyzed using the peak fluorescence intensities of the histograms at the single-cell level. The results are expressed as mean±SD from three independent trials. (D) In-vitro endothelial cell monolayer permeability assay. HRECs on inserts of Transwell® Permeable Supports were incubated with 50 μM cystamine and 20 μM MDC for 30 min and treated with 10 ng/mL VEGF for 90 min. The amount of FITC-dextran that diffused to the lower chamber was measured by a microplate spectrofluorometer (n=3) (**p<0.01).
# (§3) HRECs were transfected with 100 nM human TGase2-specific siRNA (TGase2 siRNA) or 100 nM control (Ctrl) siRNA. Endothelial cells were treated with 10 ng/ml VEGF and subjected to the confocal microscopic visualization of stress fibers (A) and VE-cadherin (B), as described in Research Design and Methods (n=3). (A) TGase2 siRNA inhibition of VEGF-induced formation of stress fibers. Scale bar, 30 μm. (B) Representative images of VE-cadherin and adherens junctions represented by VE-cadherin histograms. Scale bar, 10 μm. (C) Adherens junctions were quantitatively analyzed using peak fluorescence intensities of the histograms at the single-cell level. Results are expressed as mean±SD from three independent experiments (***p<0.001).
# HRECs [4] = experiment: Visualization of actin filaments (stress fiber formation) in HRECs; type: cell-based, human; conditions: summary statement, conditions not given
# Procedure: as §1, §2, §3
# TGase2 [5] = molecular target: T2, TGase2 (Mus musculus, UniProt P21981); experiment: In-vivo TGase activity in retina of streptozotocin-diabetic mice; conditions: diabetic mice, intravitreal 2 μl: 50 mM cystamine, 20 mM MDC, 1 μM C-peptide, 2 μM Trolox, 500 mM NAC; after 24 hrs; n=8
# T2 construct: from tissue; host or cells: retina of streptozotocin-diabetic C57BL/6 mice
# T2 sequence (P21981 1-686): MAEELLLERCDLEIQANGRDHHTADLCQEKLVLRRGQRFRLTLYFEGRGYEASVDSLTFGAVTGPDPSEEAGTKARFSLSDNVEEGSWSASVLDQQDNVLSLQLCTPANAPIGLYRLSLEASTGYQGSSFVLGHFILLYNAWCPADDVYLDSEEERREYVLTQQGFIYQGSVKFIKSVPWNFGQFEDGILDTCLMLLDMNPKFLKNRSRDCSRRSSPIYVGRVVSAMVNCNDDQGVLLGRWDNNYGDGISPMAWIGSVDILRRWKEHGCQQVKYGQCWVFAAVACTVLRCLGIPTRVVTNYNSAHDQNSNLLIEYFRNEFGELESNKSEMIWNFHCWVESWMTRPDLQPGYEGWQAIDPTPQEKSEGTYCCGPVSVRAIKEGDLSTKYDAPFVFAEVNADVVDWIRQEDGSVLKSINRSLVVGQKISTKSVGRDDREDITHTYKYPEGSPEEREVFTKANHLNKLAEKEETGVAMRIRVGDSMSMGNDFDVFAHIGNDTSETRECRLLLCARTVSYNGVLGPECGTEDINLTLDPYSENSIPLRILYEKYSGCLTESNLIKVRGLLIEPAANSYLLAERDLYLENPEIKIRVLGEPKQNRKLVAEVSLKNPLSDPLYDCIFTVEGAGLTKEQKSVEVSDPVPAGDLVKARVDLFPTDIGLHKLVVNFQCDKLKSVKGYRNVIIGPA
# Procedure: Two weeks after streptozotocin injection, diabetic mice were intravitreally injected with 2 μl of TGase inhibitors (50 mM cystamine or 20 mM MDC), 1 μM C-peptide (American Peptide Company, Sunnyvale, Calif.), ROS scavengers (2 μM Trolox or 500 mM NAC), or 65 μM mouse TG2-specific siRNA (Dharmacon, Lafayette, Colo.) into one eye and an equal volume of PBS or mouse control siRNA (Dharmacon, Lafayette, Colo.) into the contralateral eye. Non-diabetic mice were also intravitreally injected with 2 μl of PBS or mouse control siRNA into the eyes. After 24 hrs for inhibitors or C-peptide or 48 hrs for mouse TGase2 siRNA, mice were subjected to measurement of in-vivo TGase activity and vascular leakage from the retina.
# In vivo Tgase transamidating activity was determined in mouse retina using confocal microscopy (FIG. 5A). 24 hrs after intravitreal injection of TGase2 inhibitors and C-peptide or 48 h after the injection of mouse TGase2-specific siRNA, mice were deeply anaesthetized using 2.5% avertin and 48 μl of 100 mM BAPA was injected into the left ventricle. BAPA was allowed to circulate for 10 min and mice were sacrificed by cervical dislocation. Eyes were then enucleated and immediately fixed with 4% paraformaldehyde for 45 min. Retinas were dissected in the Maltese cross-configuration and permeabilized with 0.2% Triton X-100 in PBS for 30 min at RT. After incubation with the blocking solution for 30 min, retinas were treated with FITC-conjugated streptavidin (1:200, v/v) in the blocking solution for 1 hr at RT. The superficial vessels of stained retinas (n=8 per group) were observed using confocal microscopy and fluorescence intensities were analyzed using Fluoview software (FV-300). In-vivo TGase activities were quantitatively determined using fluorescence intensities in the retinas of normal and diabetic mice.
# Six-week-old male C57BL/6 mice were obtained from KOATECH (Pyeongtaek, Korea). TGase2^−/− mice (C57BL/6) were prepared by disrupting exons 5 and 6 of TGase2 by homologous recombination, as previously described. Diabetic mice were generated by a single intraperitoneal injection of streptozotocin (150 mg/kg body weight, Sigma) freshly prepared in 100 mM citrate buffer (pH 4.5) as previously described. Mice with non-fasting blood glucose levels greater than 19 mM, polyuria and glucosuria were considered diabetic. Experiments were performed in strict accordance with the guidelines of the Institutional Animal Care and Use Ethics Committee of Kangwon National University.
# To validate the in-vitro findings, the present inventors further investigated the role of TGase2 in hyperglycemia-induced vascular leakage in the retina of diabetic mice. For this study, the present inventors designed an in-vivo TGase activity assay using confocal microscopy in mouse retina (FIG. 5A). In this assay, BAPA, which is a TGase2 pseudo substrate, was systemically delivered into the blood circulatory system by injection into the left ventricles of mice, and biotinylated proteins in the retinas were probed with FITC-conjugated streptavidin.
# (A) A schematic diagram for determining TGase2 activity in mouse retina. (B,C) Streptozotocin-induced diabetic mice were intravitreally injected with 2 μl cystamine (diabetic+Cys), MDC (diabetic+MDC), C-peptide (diabetic+C-pep), Trolox (diabetic+Trolox) or NAC (diabetic+NAC) into one eye and an equal volume of PBS into the contralateral eye (diabetic). Non-diabetic mice were also intravitreally injected with 2 μl PBS into both eyes (normal). TGase2 activities in retinas were visualized by confocal microscopy and quantitatively determined as described in Research Design and Methods (n=8 per group). (B) Representative TGase activity images in the retinas. […] Scale bar, […]. (C) In-vivo TGase activities were quantified by measuring the fluorescence intensity in retinas (***p<0.001). […]
Compound,VEGF-induced TGase activation (in-situ TGase activity) (TGase2 [1]),VEGF-induced intracellular ROS generation (HRECs [2]),VEGF-elevated intracellular Ca2+ levels (HRECs [3]),VEGF-induced VE-cadherin disruption (VE-cadherin),VEGF-induced stress fiber formation (HRECs [4]),hyperglycemia-induced TGase2 activation in diabetic retina (in-vivo TGase activity) (TGase2 [5])
CC(=O)OCOC(=O)CN(CC(=O)OCOC(C)=O)c1ccccc1OCCOc1ccccc1N(CC(=O)OCOC(C)=O)CC(=O)OCOC(C)=O [BAPTA-AM],inhibited,significantly inhibited,inhibited,–,–,–
"CC(=O)N[C@@H](CS)C(=O)O [NAC, N-acetyl cysteine]",inhibited,–,–,–,–,–
NCCO [ethanolamine],–,–,–,prevented,prevented,–
"C-peptide: 31-amino acid peptide, EAEDLQVGQVELGGGPGAGSLQPLALEGSLQ (SEQ ID NO. 2), co-secreted with insulin by pancreatic β cells (listed as Homo sapiens)",–,–,–,prevented,prevented,blocked
